Measurements taken from patent US6620828B2, “Thiazole compounds and pharmaceutical compositions for inhibiting protein kinases and methods for their use” (Agouron Pharmaceuticals, Inc., priority 1999, dated 2003).

Key:
Format in all cases: biochemical
[1] = target: T1, phosphorylated VEGF-R2Δ50 (FLVK-P) (Homo sapiens, UniProt P35968, DEL940-989/E990V); experiment: VEGF-R2 coupled spectrophotometric (FLVK-P) assay; settings: read-out: VEGF % inhibition at 20 μM, 20 μM; combinatorial library compounds
T1 construct: VEGF-R2Δ50 contains residues 806-939 and 990-1171; made in house; host or cells: baculovirus/insect cells
T1 sequence (P35968 with tags, fused parts or gaps DEL940-989/E990V limits assumed): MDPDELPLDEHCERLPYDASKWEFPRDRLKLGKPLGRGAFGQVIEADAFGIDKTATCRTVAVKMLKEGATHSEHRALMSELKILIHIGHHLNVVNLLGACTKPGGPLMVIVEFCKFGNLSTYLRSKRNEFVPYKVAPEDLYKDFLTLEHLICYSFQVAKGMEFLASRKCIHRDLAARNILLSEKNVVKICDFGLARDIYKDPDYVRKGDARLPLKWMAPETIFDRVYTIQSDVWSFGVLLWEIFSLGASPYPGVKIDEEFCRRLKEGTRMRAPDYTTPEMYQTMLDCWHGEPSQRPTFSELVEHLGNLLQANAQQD
Procedure, shortened: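 Baculovirus-expressed human VEGF-R2Δ50 (residues 806-939/990-1171, E990V) was autophosphorylated with 3 mM ATP, 40 mM MgCl2 for 2 h at 4° C. ADP formation was coupled via PK/LDH to NADH oxidation, read at 340 nm, with 5.1 mM poly(E4Y1), 1 mM ATP, 25 mM MgCl2, Hepes pH 7.5. Ki came from activity across compound concentrations.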

FL-CHK1 = target: T2, FL-CHK1 (Homo sapiens, UniProt O14757); experiment: CHK1 assay; settings: 20 μM; combinatorial library compounds
T2 construct: C-terminally His-tagged full-length human CHK1 (FL-CHK1); 6xHis (C); made in house; host or cells: baculovirus/insect cells
T2 sequence (O14757 1-476): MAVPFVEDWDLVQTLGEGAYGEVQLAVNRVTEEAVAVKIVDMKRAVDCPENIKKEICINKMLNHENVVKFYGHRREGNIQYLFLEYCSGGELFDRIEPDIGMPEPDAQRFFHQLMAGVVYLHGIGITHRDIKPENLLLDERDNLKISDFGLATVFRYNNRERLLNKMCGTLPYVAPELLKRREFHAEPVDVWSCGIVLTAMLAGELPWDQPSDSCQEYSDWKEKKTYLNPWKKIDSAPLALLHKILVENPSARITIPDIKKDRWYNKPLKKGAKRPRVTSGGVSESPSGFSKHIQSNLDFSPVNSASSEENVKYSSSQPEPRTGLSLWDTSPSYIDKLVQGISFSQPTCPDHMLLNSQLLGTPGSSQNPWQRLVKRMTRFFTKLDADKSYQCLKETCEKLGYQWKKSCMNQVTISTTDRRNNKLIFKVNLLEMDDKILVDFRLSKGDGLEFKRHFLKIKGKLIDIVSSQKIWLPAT
Procedure, shortened: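 Full-length human CHK1 with C-terminal 6×His tag, made in baculovirus/insect cells, 10 nM, phosphorylating 0.125 mM Syntide-2 with 0.15 mM ATP in 50 mM Tris pH 7.5, 25 mM MgCl2, 400 mM NaCl. PK/LDH-coupled NADH oxidation read at 340 nm. Ki from initial rates over varied compound concentrations.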

CDK2/Cyclin A complex = CDK2/Cyclin A complex (Homo sapiens, UniProt P24941); experiment: CDK2/Cyclin A assay; settings: 1.0 μM; combinatorial library compounds
Procedure, shortened: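 Radiometric assay: 150 nM CDK2/cyclin A (insect-cell CDK2, truncated cyclin A) phosphorylates His-tagged Rb fragment (residues 386-928) with 25 μM ATP plus [32P]ATP, pH 7.4 HEPES, 2% DMSO, 30 °C for 20 min. Filter-captured product counted by phosphorimager; apparent Ki from competitive or tight-binding inhibition fits.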

CDK4/Cyclin D3 complex = target: T3, CDK4/Cyclin D3 complex (Homo sapiens, UniProt P11802); experiment: CDK4/Cyclin D assay; settings: 1.0 μM; combinatorial library compounds
T3 construct: made in house; host or cells: insect cells co-infected with baculovirus vectors
T3 sequence (P11802 whole entry): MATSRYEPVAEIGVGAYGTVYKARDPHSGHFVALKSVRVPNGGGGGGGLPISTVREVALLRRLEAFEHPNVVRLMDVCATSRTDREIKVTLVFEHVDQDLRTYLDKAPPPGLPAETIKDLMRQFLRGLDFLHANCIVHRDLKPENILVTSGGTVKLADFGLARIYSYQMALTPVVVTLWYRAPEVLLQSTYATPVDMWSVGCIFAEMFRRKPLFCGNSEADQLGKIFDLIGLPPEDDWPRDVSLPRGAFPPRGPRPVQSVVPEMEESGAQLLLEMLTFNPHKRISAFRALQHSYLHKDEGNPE
T3 sequence (P30281 whole entry partner): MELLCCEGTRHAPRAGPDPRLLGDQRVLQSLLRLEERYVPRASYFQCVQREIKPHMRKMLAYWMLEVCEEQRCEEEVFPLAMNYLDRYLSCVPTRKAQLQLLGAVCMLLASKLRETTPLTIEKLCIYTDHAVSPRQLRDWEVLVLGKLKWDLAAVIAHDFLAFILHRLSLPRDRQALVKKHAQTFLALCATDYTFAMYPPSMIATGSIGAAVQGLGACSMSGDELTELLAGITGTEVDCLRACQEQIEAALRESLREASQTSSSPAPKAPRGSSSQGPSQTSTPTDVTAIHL
Procedure, shortened: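 Insect-cell-expressed CDK4/cyclin D3 (50 nM) phosphorylating His-tagged Rb fragment (residues 386-928) with 25 μM [^32P]ATP in HEPES pH 7.4, MgCl2, 2% DMSO; 20 min at 30 °C, EDTA stop. Filter-captured 32P by phosphorimager; apparent Ki from competitive or tight-binding inhibition fits.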

Structure (SMILES) | inhibition at 20 µM [1] [%] | inhibition at 20 µM (FL-CHK1) [%] | inhibition at 1 µM (CDK2/Cyclin A complex) [%] | inhibition at 1 µM (CDK4/Cyclin D3 complex) [%]
CC(C)c1ccc(Nc2nc(N)c(-c3nc(-c4ccc(-c5ccc(Cl)cc5Cl)o4)cs3)s2)cc1 | 3 | -7.9 | 15.1 | 49.7
COc1ccc(-c2csc(-c3sc(Nc4ccc(C(C)C)cc4)nc3N)n2)c(OC)c1 | -10 | 1.8 | -22.6 | 38.2
COc1ccc(OC)c(-c2csc(-c3sc(Nc4ccc(C(C)C)cc4)nc3N)n2)c1 | 12 | -5.2 | 12.2 | 79.4
CCOC(=O)c1cc(-c2csc(-c3sc(Nc4ccc(C(C)C)cc4)nc3N)n2)on1 | 9 | -5.7 | 15 | 28.7
CC(C)c1ccc(Nc2nc(N)c(-c3nc(-c4ccc(-c5ccccc5)cc4)cs3)s2)cc1 | -9 | 3.2 | 9.6 | 0.7
Cc1onc(-c2ccccc2)c1-c1csc(-c2sc(Nc3ccc(C(C)C)cc3)nc2N)n1 | 5 | -0.9 | 11.1 | 49.8
CC(C)c1ccc(Nc2nc(N)c(-c3nc(-c4ccc(OC(=O)c5ccccc5)cc4)cs3)s2)cc1 | -4 | 7.5 | 73 | 45.9
Cc1cc(-c2csc(-c3sc(Nc4ccc(C(C)C)cc4)nc3N)n2)cc(C)c1O | 45 | 5.1 | 14.1 | 74.6
CC(C)c1ccc(Nc2nc(N)c(-c3nc(-c4c(Cl)c(Cl)nc(Cl)c4Cl)cs3)s2)cc1 | 30 | 19.3 | 12.5 | 72.7
CC(C)c1ccc(Nc2nc(N)c(-c3nc(-c4ccc(CC(=O)O)s4)cs3)s2)cc1 | 33 | 13 | 21.8 | 61.8
CC(C)c1ccc(Nc2nc(N)c(-c3nc(-c4cccc(OC(=O)c5ccccc5)c4)cs3)s2)cc1 | 5 | 8.8 | 21.7 | 48
CC(C)c1ccc(Nc2nc(N)c(-c3nc(-c4c(Cl)cc(C(F)(F)F)cc4Cl)cs3)s2)cc1 | 31 | 14.8 | 26 | 86.2
CCN(CC)c1ccc(-c2csc(-c3sc(Nc4ccc(C(C)C)cc4)nc3N)n2)cc1 | 9 | -5.3 | 12.2 | 73
CC(C)c1ccc(Nc2nc(N)c(-c3nc(-c4csc5ccccc45)cs3)s2)cc1 | 25 | -4.3 | 9.3 | 72
CC(C)c1ccc(Nc2nc(N)c(-c3nc(-c4cc(C(=O)C(Cl)(Cl)Cl)n(C)c4)cs3)s2)cc1 | -3 | 0.7 | 10.1 | 37.8
CC(C)c1ccc(Nc2nc(N)c(-c3nc(-c4cc5cc(Cl)ccc5o4)cs3)s2)cc1 | -11 | 3.4 | 17 | 33.2

Results, then the compound that gave them:

inhibition at 20 µM [1] [%] | inhibition at 20 µM (FL-CHK1) [%] | inhibition at 1 µM (CDK2/Cyclin A complex) [%] | inhibition at 1 µM (CDK4/Cyclin D3 complex) [%] | Structure (SMILES)
28 | 31.6 | 23.8 | 62.7 | CC(C)c1ccc(Nc2nc(N)c(-c3nc(-c4ccc(O)c(O)c4)cs3)s2)cc1
7 | 23.5 | 14.2 | 71.5 | CC(C)c1ccc(Nc2nc(N)c(-c3nc(-c4ccc(Cl)c([N+](=O)[O-])c4)cs3)s2)cc1
-13 | 15.6 | 6.3 | 53.3 | COc1ccccc1-c1csc(-c2sc(Nc3ccc(C(C)C)cc3)nc2N)n1
-2 | 0.8 | 14.2 | 55.9 | Cc1ccc(-c2csc(-c3sc(Nc4ccc(C(C)C)cc4)nc3N)n2)cc1
-2 | -0.2 | 10.8 | 53.1 | CC(C)c1ccc(Nc2nc(N)c(-c3nc(-c4ccc(Cl)cc4)cs3)s2)cc1
16 | 32.2 | 17.7 | 63 | CC(C)c1ccc(Nc2nc(N)c(-c3nc(-c4ccccc4[N+](=O)[O-])cs3)s2)cc1
-4 | 6 | 17.8 | 35.6 | CC(C)c1ccc(Nc2nc(N)c(-c3nc(-c4ccc([N+](=O)[O-])cc4)cs3)s2)cc1
-7 | 9 | 11.7 | 9.1 | Cc1cc(-c2csc(-c3sc(Nc4ccc(C(C)C)cc4)nc3N)n2)ccc1Cl
7 | 7.1 | 5.9 | 58.4 | CC(C)c1ccc(Nc2nc(N)c(-c3nc(-c4ccc(C#N)cc4)cs3)s2)cc1
23 | 21.4 | 25.7 | 81.4 | CC(C)c1ccc(Nc2nc(N)c(-c3nc(-c4ccc(Cl)cc4Cl)cs3)s2)cc1
14 | 23.8 | 22 | 50.6 | CC(C)c1ccc(Nc2nc(N)c(-c3nc(-c4ccc5c(c4)OCCO5)cs3)s2)cc1
48 | 39.8 | 16.1 | 80.7 | CC(C)c1ccc(Nc2nc(N)c(-c3nc(-c4ccc(F)cc4)cs3)s2)cc1
22 | 17.6 | 19 | 53.3 | CC(C)c1ccc(Nc2nc(N)c(-c3nc(-c4ccc[nH]4)cs3)s2)cc1
5 | 10.9 | 21.2 | 39.5 | CC(C)c1ccc(Nc2nc(N)c(-c3nc(-c4ccc(F)c(F)c4)cs3)s2)cc1
-2 | 7.2 | 24.7 | 35.3 | CC(C)c1ccc(Nc2nc(N)c(-c3nc(-c4cccc([N+](=O)[O-])c4)cs3)s2)cc1
-4 | 0.3 | 10.4 | -7.9 | CC(C)c1ccc(Nc2nc(N)c(-c3nc(-c4ccc(Cl)c(Cl)c4)cs3)s2)cc1
49 | 25 | 10.5 | 77 | CC(C)c1ccc(Nc2nc(N)c(-c3nc(-c4ccc(O)cc4)cs3)s2)cc1
14 | -2.5 | 23.3 | 50 | Cc1ccc(-c2csc(-c3sc(Nc4ccc(C(C)C)cc4)nc3N)n2)c(C)c1
46 | 19.7 | 30.6 | 91.5 | CC(C)c1ccc(Nc2nc(N)c(-c3nc(-c4ccc(F)cc4F)cs3)s2)cc1
5 | 12 | 14.6 | 48.1 | CC(C)c1ccc(Nc2nc(N)c(-c3nc(-c4cccc(Br)c4)cs3)s2)cc1
